# Target: T1, recombinant human TLR4 (Homo sapiens, UniProt O00206)
# T1 construct: amine-coupled to CM5 chip
# Experiment: surface plasmon resonance (Biacore X100), steady-state fit
# Format: binding
# Conditions: PBS with 0.05% Triton X-100, pH 7.4; geniposide 0-12.8 uM; TLR4 immobilised on CM5 chip (1,300 RU)
# T1 sequence (O00206 24-839): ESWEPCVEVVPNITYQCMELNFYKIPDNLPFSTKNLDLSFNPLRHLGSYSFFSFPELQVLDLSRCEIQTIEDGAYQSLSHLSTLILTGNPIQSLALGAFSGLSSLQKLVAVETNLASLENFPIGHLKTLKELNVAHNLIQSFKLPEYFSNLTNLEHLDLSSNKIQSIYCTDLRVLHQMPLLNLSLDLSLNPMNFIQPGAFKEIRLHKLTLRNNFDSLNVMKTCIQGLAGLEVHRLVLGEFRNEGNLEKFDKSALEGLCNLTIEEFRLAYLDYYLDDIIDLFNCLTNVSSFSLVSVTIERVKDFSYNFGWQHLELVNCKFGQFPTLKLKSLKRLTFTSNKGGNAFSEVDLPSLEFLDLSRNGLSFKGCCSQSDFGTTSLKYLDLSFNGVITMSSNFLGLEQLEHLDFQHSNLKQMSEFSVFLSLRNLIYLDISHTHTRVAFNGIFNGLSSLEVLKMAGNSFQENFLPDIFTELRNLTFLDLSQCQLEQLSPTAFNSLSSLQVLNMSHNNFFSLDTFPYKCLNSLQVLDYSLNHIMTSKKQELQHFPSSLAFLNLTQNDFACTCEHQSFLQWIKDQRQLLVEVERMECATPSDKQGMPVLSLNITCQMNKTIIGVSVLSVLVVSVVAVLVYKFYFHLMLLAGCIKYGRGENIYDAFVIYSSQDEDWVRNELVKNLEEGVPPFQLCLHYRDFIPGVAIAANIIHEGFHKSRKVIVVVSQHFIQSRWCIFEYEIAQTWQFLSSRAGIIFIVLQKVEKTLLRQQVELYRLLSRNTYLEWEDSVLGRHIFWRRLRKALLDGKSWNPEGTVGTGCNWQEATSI
smiles,measurement,value
COC(=O)C1=CO[C@@H](O[C@@H]2O[C@H](CO)[C@@H](O)[C@H](O)[C@H]2O)[C@@H]2C(CO)=CC[C@H]12 [geniposide],K D,6.716e^−6 M
